Results reported in ChEMBL document CHEMBL3808337, “Rapid Discovery of Pyrido[3,4-d]pyrimidine Inhibitors of Monopolar Spindle Kinase 1 (MPS1) Using a Structure-Based Hybridization Approach” (J Med Chem, 2016).
One block for each compound: values may come before it.

Key:
[1] = Drug metabolism in CD1 mouse liver microsomes at 10 uM after 30 mins by LCMS analysis; type: ADME; details: read-out: Drug metabolism
[2] = Antiproliferative activity against human HCT116 cells assessed as cell viability after 72 hrs by MTT assay; type: functional; details: HCT-116, 72 h
[3] = molecular target: CDK2/Cyclin A2 (Homo sapiens, UniProt P24941)
[4] = Antiproliferative activity against human RMG-1 cells assessed as cell viability after 72 hrs by MTT assay; type: functional; details: RMG-I
[5] = AUC in Balb/C mouse blood at 5 mg/kg, po after 24 hrs by ESI-LCMS/MS analysis; type: ADME, organism-based; design: time < 24 hr, dose 5 mg/kg, route oral
[6] = molecular target: T1, Cytochrome P450 3A4 (Homo sapiens, UniProt P08684); assay: Inhibition of CYP3A4T (unknown origin); type: ADME
T1 sequence (P08684 whole entry): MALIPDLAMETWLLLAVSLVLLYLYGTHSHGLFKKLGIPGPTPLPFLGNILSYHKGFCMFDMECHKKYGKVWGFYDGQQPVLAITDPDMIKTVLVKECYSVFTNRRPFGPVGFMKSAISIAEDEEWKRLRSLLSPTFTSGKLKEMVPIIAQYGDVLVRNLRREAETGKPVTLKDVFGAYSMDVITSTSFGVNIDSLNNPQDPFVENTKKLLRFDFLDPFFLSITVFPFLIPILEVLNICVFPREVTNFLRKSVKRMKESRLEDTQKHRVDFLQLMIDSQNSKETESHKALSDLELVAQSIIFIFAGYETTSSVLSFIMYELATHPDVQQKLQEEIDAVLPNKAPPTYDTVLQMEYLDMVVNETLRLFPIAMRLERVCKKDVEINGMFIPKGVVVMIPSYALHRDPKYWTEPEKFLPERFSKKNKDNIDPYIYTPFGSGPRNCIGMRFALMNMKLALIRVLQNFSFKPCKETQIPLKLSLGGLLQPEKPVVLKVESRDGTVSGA

[7] = Oral bioavailability in Sprague-Dawley rat at 5 mg/kg after 24 hrs by ESI-LCMS/MS analysis; type: ADME, organism-based; details: in vivo
[8] = molecular target: Voltage-gated inwardly rectifying potassium channel KCNH2 (Homo sapiens, UniProt Q12809); assay: Inhibition of human ERG at 1 to 10 uM
Voltage-gated inwardly rectifying potassium channel KCNH2, sequence (Q12809 whole entry): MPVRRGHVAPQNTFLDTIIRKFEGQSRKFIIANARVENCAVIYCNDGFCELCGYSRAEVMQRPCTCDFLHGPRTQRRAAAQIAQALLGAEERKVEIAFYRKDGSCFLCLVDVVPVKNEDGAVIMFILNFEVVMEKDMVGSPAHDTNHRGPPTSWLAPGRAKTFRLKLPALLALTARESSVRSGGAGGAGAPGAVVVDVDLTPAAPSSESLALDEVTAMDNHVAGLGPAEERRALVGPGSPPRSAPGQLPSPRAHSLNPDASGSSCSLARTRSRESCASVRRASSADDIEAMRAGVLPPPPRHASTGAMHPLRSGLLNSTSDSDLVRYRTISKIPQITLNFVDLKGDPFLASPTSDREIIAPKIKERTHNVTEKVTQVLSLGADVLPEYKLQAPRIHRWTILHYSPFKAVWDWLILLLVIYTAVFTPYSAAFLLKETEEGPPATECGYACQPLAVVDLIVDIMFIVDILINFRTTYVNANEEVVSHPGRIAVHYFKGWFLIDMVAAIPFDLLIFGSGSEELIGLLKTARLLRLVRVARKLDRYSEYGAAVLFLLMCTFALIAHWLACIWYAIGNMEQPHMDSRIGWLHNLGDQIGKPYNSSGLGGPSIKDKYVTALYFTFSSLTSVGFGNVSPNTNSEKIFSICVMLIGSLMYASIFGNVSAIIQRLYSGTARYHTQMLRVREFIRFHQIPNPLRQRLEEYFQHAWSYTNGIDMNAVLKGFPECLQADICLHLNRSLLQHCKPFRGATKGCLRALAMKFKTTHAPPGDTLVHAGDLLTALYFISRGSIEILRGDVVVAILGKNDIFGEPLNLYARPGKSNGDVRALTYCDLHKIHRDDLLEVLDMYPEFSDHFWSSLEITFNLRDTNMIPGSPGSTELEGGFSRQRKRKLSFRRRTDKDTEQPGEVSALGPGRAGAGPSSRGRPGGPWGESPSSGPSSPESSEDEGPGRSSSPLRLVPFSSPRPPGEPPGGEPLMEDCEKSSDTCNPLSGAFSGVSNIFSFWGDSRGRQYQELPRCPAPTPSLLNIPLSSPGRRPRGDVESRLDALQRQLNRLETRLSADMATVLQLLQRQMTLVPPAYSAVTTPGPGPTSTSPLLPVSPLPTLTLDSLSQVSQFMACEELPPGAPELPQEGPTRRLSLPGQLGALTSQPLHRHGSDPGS

[9] = molecular target: T2, Cytochrome P450 2A6 (Homo sapiens, UniProt P11509); assay: Inhibition of CYP2A6 (unknown origin); type: ADME
T2 sequence (P11509 whole entry): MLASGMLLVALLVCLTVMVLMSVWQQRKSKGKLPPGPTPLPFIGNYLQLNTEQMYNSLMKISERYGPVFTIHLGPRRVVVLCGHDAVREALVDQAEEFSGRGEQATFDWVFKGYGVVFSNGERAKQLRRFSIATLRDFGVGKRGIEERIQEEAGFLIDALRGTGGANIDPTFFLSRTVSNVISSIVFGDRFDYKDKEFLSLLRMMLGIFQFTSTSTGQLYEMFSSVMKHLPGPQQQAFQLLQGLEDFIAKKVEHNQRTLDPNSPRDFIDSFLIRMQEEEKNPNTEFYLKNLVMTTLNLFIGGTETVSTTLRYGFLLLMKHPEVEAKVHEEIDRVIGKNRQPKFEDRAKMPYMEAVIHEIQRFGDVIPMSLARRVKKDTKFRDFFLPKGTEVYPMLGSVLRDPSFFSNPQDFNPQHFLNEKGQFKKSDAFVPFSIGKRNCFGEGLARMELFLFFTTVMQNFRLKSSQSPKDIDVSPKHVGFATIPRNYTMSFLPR

[10] = molecular target: T1, Cytochrome P450 3A4; assay: Inhibition of CYP3A4 (unknown origin) using midazolam as substrate; type: ADME
[11] = molecular target: T1, Cytochrome P450 3A4; assay: Inhibition of CYP3A4 (unknown origin) using testosterone as substrate; type: ADME
[12] = Antiproliferative activity against human PNT2 cells assessed as cell viability after 72 hrs by MTT assay; type: functional; details: PNT2, 72 h
[13] = Antiproliferative activity against human SW620 cells assessed as cell viability after 72 hrs by MTT assay; type: functional; details: SW-620, 72 h
[14] = Half life in Sprague-Dawley rat blood at 5 mg/kg, iv or po […] by ESI-LCMS/MS analysis; type: ADME, organism-based
[15] = Antiproliferative activity against human MIAPaCa2 cells assessed as cell viability after 72 hrs by MTT assay; type: functional; details: MIA PaCa-2, 72 h
[16] = Volume of distribution at steady state in Sprague-Dawley rat at 5 mg/kg, iv or po after 24 hrs by ESI-LCMS/MS analysis; type: ADME, organism-based; details: in vivo, read-out: Vdss
[17] = Cmax in Sprague-Dawley rat blood at 5 mg/kg, po after 24 hrs by ESI-LCMS/MS analysis; type: ADME, organism-based; design: dose 5 mg/kg, route oral
[18] = molecular target: Cytochrome P450 2C19 (Homo sapiens, UniProt P33261); assay: Inhibition of CYP2C19 (unknown origin); type: ADME; details: human
Cytochrome P450 2C19, sequence (P33261 whole entry): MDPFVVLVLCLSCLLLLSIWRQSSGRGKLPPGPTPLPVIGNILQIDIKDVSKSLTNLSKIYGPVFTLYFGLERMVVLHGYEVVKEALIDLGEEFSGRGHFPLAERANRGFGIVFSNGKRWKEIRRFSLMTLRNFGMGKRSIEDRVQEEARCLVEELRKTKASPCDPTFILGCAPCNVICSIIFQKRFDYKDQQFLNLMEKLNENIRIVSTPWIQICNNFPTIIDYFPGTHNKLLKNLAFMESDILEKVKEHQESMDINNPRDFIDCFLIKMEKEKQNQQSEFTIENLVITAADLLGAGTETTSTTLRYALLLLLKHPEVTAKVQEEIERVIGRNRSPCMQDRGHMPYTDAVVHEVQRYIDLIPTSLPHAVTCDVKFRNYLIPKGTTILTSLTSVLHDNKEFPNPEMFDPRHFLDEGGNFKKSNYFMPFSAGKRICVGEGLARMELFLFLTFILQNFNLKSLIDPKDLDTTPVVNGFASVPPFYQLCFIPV

[19] = Antiproliferative activity against human CAL27 cells assessed as cell viability after 72 hrs by MTT assay; type: functional; details: CAL-27, 72 h
[20] = Clearance in Sprague-Dawley rat blood at 5 mg/kg, iv or po after 24 hrs by ESI-LCMS/MS analysis; type: ADME, organism-based
[21] = molecular target: T3, Cytochrome P450 1A2 (Homo sapiens, UniProt P05177); assay: Inhibition of CYP1A2 (unknown origin); type: ADME; details: human
T3 sequence (P05177 whole entry): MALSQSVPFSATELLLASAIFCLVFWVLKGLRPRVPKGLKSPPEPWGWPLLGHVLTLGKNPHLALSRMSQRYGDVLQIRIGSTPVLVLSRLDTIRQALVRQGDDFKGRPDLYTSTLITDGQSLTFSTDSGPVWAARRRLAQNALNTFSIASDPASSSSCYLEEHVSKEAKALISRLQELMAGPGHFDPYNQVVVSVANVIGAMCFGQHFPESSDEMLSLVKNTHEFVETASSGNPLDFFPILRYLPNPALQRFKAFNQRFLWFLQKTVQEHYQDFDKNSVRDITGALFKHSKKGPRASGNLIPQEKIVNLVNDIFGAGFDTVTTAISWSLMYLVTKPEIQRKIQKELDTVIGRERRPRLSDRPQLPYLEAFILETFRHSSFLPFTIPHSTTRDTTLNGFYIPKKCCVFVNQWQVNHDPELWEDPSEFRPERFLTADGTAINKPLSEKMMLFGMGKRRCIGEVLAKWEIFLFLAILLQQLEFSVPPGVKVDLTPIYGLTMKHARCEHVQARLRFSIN

[22] = Plasma protein binding in Balb/C mouse at 5 mg/kg, iv or po after 24 hrs by ESI-LCMS/MS analysis; type: ADME, organism-based; details: read-out: PPB (converted)
[23] = Plasma protein binding in Sprague-Dawley rat at 5 mg/kg, iv or po after 24 hrs by ESI-LCMS/MS analysis; type: ADME, organism-based; details: read-out: PPB (converted)
[24] = Oral bioavailability in Balb/C mouse at 5 mg/kg after 24 hrs by ESI-LCMS/MS analysis; type: ADME, organism-based; details: in vivo
[25] = Drug metabolism in human liver microsomes at 10 uM after 30 mins by LCMS analysis; type: ADME; details: read-out: Drug metabolism
[26] = molecular target: Mitogen-activated protein kinase 9 (Homo sapiens, UniProt P45984); assay: Inhibition of human full length recombinant His-tagged JNK2 expressed in baculovirus by lanthascreen assay
Mitogen-activated protein kinase 9, sequence (P45984 whole entry): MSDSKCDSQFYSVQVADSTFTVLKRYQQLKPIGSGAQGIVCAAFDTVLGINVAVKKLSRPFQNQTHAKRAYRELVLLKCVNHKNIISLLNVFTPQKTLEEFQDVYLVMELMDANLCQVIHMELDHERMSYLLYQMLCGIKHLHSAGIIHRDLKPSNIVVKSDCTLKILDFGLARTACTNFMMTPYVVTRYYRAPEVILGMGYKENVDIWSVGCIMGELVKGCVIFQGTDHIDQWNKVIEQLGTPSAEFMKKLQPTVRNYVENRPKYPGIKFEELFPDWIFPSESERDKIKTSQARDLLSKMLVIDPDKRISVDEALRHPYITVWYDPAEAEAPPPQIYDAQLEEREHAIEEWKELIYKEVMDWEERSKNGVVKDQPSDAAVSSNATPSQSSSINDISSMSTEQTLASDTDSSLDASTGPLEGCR

[27] = Antiproliferative activity against human CAL51 cells assessed as cell viability after 72 hrs by MTT assay; type: functional; details: CAL-51, 72 h
[28] = Cmax in Balb/C mouse blood at 5 mg/kg, po after 24 hrs by ESI-LCMS/MS analysis; type: ADME, organism-based; design: dose 5 mg/kg, route oral
[29] = AUC in Sprague-Dawley rat blood at 5 mg/kg, po after 24 hrs by ESI-LCMS/MS analysis; type: ADME, organism-based; design: time < 24 hr, dose 5 mg/kg, route oral
[30] = molecular target: Serine/threonine-protein kinase PLK1 (Homo sapiens, UniProt P53350); assay: Inhibition of human full length recombinant His-tagged PLK1 expressed in baculovirus by Z'-LYTE assay
Serine/threonine-protein kinase PLK1, sequence (P53350 whole entry): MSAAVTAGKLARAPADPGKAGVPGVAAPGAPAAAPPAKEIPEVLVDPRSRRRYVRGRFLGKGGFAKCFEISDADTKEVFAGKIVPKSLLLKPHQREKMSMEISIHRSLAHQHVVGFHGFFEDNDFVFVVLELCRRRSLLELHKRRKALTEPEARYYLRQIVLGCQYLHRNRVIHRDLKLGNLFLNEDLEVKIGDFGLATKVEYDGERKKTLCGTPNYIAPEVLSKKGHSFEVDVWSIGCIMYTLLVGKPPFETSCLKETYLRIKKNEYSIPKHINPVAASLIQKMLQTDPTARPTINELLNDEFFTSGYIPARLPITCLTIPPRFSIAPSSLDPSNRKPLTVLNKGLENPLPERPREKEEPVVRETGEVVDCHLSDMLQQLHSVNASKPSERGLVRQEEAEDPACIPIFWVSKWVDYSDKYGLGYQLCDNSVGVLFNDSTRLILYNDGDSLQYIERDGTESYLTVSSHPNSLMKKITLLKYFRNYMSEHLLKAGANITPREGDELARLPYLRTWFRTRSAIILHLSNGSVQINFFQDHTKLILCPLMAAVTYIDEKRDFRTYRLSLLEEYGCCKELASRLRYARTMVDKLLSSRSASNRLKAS

[31] = Volume of distribution at steady state in Balb/C mouse at 5 mg/kg, iv or po after 24 hrs by ESI-LCMS/MS analysis; type: ADME, organism-based; details: in vivo, read-out: Vdss
[32] = molecular target: T4, Cytochrome P450 2C8 (Homo sapiens, UniProt P10632); assay: Inhibition of CYP2C8 (unknown origin); type: ADME
T4 sequence (P10632 whole entry): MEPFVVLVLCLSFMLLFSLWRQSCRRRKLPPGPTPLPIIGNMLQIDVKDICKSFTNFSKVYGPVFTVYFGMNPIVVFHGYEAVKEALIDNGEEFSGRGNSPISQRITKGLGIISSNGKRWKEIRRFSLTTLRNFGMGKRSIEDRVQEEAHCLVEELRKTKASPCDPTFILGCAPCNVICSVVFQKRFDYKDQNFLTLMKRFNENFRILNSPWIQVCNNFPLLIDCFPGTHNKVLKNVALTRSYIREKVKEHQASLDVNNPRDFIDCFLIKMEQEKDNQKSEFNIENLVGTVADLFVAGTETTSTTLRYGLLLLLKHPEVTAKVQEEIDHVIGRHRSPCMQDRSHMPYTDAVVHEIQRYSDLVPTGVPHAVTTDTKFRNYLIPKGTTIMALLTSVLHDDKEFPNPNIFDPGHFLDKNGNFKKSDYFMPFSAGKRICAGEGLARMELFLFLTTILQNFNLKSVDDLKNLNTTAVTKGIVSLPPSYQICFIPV

[33] = Half life in Balb/C mouse blood at 5 mg/kg, iv or po after 24 hrs by ESI-LCMS/MS analysis; type: ADME, organism-based
[34] = Drug metabolism in Sprague-Dawley rat liver microsomes at 10 uM after 30 mins by LCMS analysis; type: ADME; details: read-out: Drug metabolism
[35] = molecular target: Mitogen-activated protein kinase 8 (Homo sapiens, UniProt P45983); assay: Inhibition of human full length recombinant His-tagged JNK1 expressed in baculovirus by lanthascreen assay
Mitogen-activated protein kinase 8, sequence (P45983 whole entry): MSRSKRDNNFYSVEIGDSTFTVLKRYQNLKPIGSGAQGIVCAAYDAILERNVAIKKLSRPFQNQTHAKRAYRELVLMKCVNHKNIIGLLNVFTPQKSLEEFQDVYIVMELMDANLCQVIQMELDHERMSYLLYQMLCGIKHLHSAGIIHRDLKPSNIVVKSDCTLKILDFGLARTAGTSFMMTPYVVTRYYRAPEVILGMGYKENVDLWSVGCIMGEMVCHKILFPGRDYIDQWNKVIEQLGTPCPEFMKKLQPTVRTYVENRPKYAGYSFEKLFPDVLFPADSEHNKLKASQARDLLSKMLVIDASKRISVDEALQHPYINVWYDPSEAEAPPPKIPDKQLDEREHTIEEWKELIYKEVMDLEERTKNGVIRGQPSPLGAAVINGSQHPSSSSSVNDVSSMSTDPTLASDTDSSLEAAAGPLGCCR

[36] = molecular target: T5, Cytochrome P450 2B6 (Homo sapiens, UniProt P20813); assay: Inhibition of CYP2B6 (unknown origin); type: ADME
T5 sequence (P20813 whole entry): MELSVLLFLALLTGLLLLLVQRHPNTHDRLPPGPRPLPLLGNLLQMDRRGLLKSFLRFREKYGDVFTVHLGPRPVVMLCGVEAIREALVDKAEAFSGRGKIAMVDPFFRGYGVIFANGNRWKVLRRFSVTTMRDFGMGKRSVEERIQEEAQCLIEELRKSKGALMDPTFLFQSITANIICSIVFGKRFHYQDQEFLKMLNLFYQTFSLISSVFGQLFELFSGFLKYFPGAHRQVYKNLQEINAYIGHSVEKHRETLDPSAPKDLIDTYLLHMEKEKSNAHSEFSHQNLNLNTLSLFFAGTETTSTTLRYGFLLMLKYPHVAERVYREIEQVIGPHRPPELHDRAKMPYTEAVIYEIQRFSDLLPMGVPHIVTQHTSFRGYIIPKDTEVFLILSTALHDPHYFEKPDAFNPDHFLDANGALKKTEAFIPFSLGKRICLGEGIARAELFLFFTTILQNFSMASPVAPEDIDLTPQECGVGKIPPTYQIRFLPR

[37] = molecular target: Cytochrome P450 2C9 (Homo sapiens, UniProt P11712); assay: Inhibition of CYP2C9 (unknown origin); type: ADME; details: human
Cytochrome P450 2C9, sequence (P11712 whole entry): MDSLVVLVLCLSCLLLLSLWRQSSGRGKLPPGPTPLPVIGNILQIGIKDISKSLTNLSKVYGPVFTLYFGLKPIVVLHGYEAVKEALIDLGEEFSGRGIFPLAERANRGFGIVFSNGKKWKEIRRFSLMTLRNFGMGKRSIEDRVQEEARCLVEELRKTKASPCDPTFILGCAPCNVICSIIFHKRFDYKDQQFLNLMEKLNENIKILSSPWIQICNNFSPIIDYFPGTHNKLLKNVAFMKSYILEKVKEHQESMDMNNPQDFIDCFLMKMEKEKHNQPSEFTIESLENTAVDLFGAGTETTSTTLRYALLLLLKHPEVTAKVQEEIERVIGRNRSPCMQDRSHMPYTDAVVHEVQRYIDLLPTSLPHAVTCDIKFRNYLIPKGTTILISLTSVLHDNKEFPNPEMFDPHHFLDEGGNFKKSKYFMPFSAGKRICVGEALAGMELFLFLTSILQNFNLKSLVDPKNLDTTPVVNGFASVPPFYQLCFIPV

[38] = Clearance in Balb/C mouse blood at 5 mg/kg, iv or po after 24 hrs by ESI-LCMS/MS analysis; type: ADME, organism-based

metabolised at 0.5 h, 10 µM [1]: 59%
SMILES: COCCOc1cc(-c2cnn(C)c2)ccc1Nc1ncc2ccnc(-c3cnn(C)c3)c2n1

metabolised at 0.5 h, 10 µM [1]: 73%
SMILES: COc1cc(-c2cnn(C)c2)ccc1Nc1ncc2ccnc(-c3cnn(C)c3)c2n1

metabolised at 0.5 h, 10 µM [1]: 33%
SMILES: COc1cc(-c2cnn(C)c2)ccc1Nc1ncc2ccnc(NCC3CC3)c2n1
GI50 [2]: 0.32 µM

IC50 [3]: 1.22 µM
SMILES: COc1ccc(Nc2cc3c(-c4cnn(C)c4)cccc3cn2)cc1

metabolised at 0.5 h, 10 µM [1]: 45%
IC50 [3]: > 10 µM
SMILES: CC(C)Oc1cc(-c2cnn(C)c2)ccc1Nc1ncc2ccnc(-c3cnn(C)c3)c2n1

Second part, the compound before the results:

SMILES: COc1cc(-c2cnn(C)c2)ccc1Nc1ncc2ccnc(NCC(C)C)c2n1
metabolised at 0.5 h, 10 µM [1]: 66%
GI50 [2]: 1.1 µM

SMILES: COc1ccc(Nc2cc3c(-c4ccco4)cccc3cn2)cc1
IC50 [3]: 31.1 µM

SMILES: COc1cc(-c2cnn(C)c2)ccc1Nc1ncc2ccnc(N[C@@H](C)C(C)(C)C)c2n1
GI50 [4]: 0.11 µM
AUC at 24 h [5]: 4.8 µM·h
inhibition (INH) [6]: Not Active
bioavailability [7]: 100%
inhibition (INH) [8]: Not Active
metabolised at 0.5 h, 10 µM [1]: 27%
inhibition (INH) [9]: Not Active
inhibition (INH) [10]: Not Active
inhibition (INH) [11]: Not Active
GI50 [12]: 3.95 µM
GI50 [13]: 0.065 µM
half-life [14]: 2.5 h
GI50 [15]: 0.25 µM
Vd [16]: 4.64 L/kg
Cmax [17]: 560 nM
inhibition (INH) [18]: Not Active
GI50 [19]: 0.23 µM
GI50 [2]: 0.16 µM
clearance [20]: 24 mL/min/kg
inhibition (INH) [21]: Not Active
fraction unbound at 24 h [22]: 0.0002
fraction unbound at 24 h [23]: 0.0003
bioavailability [24]: 68%
metabolised at 0.5 h, 10 µM [25]: 70%
IC50 [26]: 0.22 µM
GI50 [27]: 0.068 µM
Cmax [28]: 770 nM
AUC at 24 h [29]: 9.3 µM·h
IC50 [30]: > 100 µM
Vd [31]: 14.7 L/kg
inhibition (INH) [32]: Not Active
half-life [33]: 8.2 h
metabolised at 0.5 h, 10 µM [34]: 24%
IC50 [35]: 0.11 µM
inhibition (INH) [36]: Not Active
inhibition (INH) [37]: Not Active
clearance [38]: 28 mL/min/kg

SMILES: COc1cc(-c2cnn(C)c2)ccc1Nc1ncc2ccnc(SC3CCCCC3)c2n1
IC50 [3]: > 10 µM
